Results published in patent publication US9012471B2, “Glucose metabolism modulating compounds” (The Trustees of Columbia University in the City of New York, priority 2008, dated 2015).

Legend:
Lewis rats [1] = experiment: Intraperitoneal glucose tolerance test (IPGTT), blood glucose; type: in vivo, rat; details: for decrease of AUC IPGTT: 2 mg/kg i.v. 30 minutes before glucose 2 g/kg I.P.
Experimental: Rats were handled daily to minimize nonspecific stress for more than 7 days before the experiments began. In most experiments, it was necessary to measure blood glucose in fasting animals. For these groups, food was removed at the beginning of the light cycle, 6 hours before glucose levels were tested.
Sixty minutes prior to intraperitoneal glucose tolerance testing (IPGTT), anesthesia of male Lewis rats was induced with isoflurane (3-4% in oxygen) and maintained with 1-2% isoflurane in oxygen.
Anaesthetized rats were administered TBZ at the indicated dose by intravenous (i.v.) injection using the penile vein. […] Control rats received injections of vehicle alone (10% DMSO in Saline).
(§1) Animals were fully recovered for at least 30 minutes before receiving IPGTT. In specified experiments, L-DOPA was injected interperitoneal (I.P.) at the specified dose at the initiation of IPGTT. Abnormal glucose tolerance was induced by a single I.P. injection of streptozotocin (STZ) (Sigma Aldrich, St. Louis, Mo.) (50 mg/kg) to animals that had been fasted 4 hours to enhance the efficacy of STZ.
(§2) Blood samples were collected between 12:00 noon and 2:00 p.m. from a superficial blood vessel in the tails of the rats following 6 hours of fasting. The fasting blood glucose (BG) levels of the rats were measured using an Accu-Check blood glucose monitoring system (Roche Diagnostics, Sommerville, N.J.). IPGTT was performed in 6-hour fasting anaesthetized animals as previously described (Weksler-Zangen, et al. 2001). Briefly, after baseline BG measurements, animals received an I.P. injection of 2 grams of glucose/kg body weight. To minimize stress during the procedure, rats were handled by the same operator during acclimatization and later during weighing and IPGTT. Blood samples (50 μl or 150 μl) were collected at baseline and then again 15, 30, 60, 90, and 120 minutes following I.P. injection of glucose. Blood glucose concentrations were measured immediately on these samples and the remainder processed. Plasma was immediately separated by centrifugation at 3,000×g for 15 minutes and then stored at −80° C. until analysis.
Insulin and glucagon concentration measurements in rat plasma were performed by ELISA as per the manufacturer's instructions using kits from Linco Research Inc. (St. Charles, Mich.) and Alpco Diagnostics (Salem, N.H.), respectively. To validate the test, saline injections were performed by the same method. […] The area under the insulin, glucagon and IPGTT glucose concentration×time curve (AUC IPGTT) was calculated by the trapezoidal rule.

Lewis rats [2] = experiment: Dopamine content of brain and pancreas tissue by ELISA after TBZ; type: in vivo, rat; details: 1.5 mg/Kg i.v., one hour after injection
Experimental: Euthanasia was performed by exsanguination of the anesthetized animal. Brain and pancreas were harvested as quickly as possible and frozen at −80° C. until use. […] The tissue extract was centrifuged at 10,000×g at 4° C. to remove debris and the total protein was estimated by reading the absorbance at 280 nm.

Lewis rats [3] = experiment: Plasma insulin and glucagon during IPGTT; type: in vivo, rat; details: i.v. TBZ and glucose challenge
Experimental: as §2, with “The” for “Blood samples were collected between 12:00 noon and 2:00 p.m. from a superficial blood vessel in the tails of the rats following 6 hours of fasting. The”, “([…],” for “(Weksler-Zangen,”, “-80°” for “−80°”, “analysis. Insulin and glucagon concentration measurements in rat plasma were performed by ELISA as per the manufacturer's instructions using kits from Linco Research Inc. (St. Charles, Mich.) and Alpco Diagnostics (Salem, N.H.), respectively. To validate the test, saline injections were performed by the same method. […] The area under the insulin, glucagon and IPGTT glucose concentration×time curve (AUC IPGTT) was calculated by the trapezoidal rule.” for “analysis.”

STZ treated rats = experiment: IPGTT and insulin in streptozotocin (STZ) treated rats; type: in vivo, rat; details: TBZ 1.5 mg/Kg
Experimental: as §1
STZ solution was prepared fresh by dissolving it in 0.1 M citrate buffer (pH 5.5) and terminally sterile filtered. Control Lewis age and weight matched rats received a 0.5 ml/kg citrate vehicle alone via intraperitoneal injection. […]
Blood samples were collected between 12:00 noon and 2:00 p.m. from a superficial blood vessel in the tails of the rats following 6 hours of fasting. The fasting blood glucose (BG) levels of the rats were measured using an Accu-Check blood glucose monitoring system (Roche Diagnostics, Sommerville, N.J.). […] Blood glucose concentrations were measured immediately on these samples and the remainder processed. […]
Insulin and glucagon concentration measurements in rat plasma were performed by ELISA as per the manufacturer's instructions using kits from Linco Research Inc. (St. Charles, Mich.) and Alpco Diagnostics (Salem, N.H.), respectively. […] The area under the insulin, glucagon and IPGTT glucose concentration×time curve (AUC IPGTT) was calculated by the trapezoidal rule.

rats = details: cited from earlier work
[4] = rats; cited from earlier work
VMAT1 = molecular target: T1, VMAT1 (Homo sapiens, UniProt P54219); details: cited from earlier work
T1 sequence (P54219 1-525): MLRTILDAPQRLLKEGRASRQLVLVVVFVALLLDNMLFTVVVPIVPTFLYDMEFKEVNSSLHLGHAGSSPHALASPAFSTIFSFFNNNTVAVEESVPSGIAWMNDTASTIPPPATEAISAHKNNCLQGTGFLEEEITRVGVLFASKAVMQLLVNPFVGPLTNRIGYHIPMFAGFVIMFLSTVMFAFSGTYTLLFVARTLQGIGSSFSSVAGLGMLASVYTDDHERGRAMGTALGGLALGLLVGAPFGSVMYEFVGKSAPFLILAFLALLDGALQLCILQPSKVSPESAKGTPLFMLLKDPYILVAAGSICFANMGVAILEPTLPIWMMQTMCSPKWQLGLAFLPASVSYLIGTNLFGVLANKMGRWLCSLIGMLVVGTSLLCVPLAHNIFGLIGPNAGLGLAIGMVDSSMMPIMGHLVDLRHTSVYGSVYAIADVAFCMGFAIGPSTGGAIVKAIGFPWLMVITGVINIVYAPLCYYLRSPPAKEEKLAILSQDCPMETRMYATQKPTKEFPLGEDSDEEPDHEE

VMAT2 [5] = molecular target: VMAT2 (Homo sapiens, UniProt Q05940); details: cited from earlier work
DPP-IV = molecular target: T2, DPP-IV (Homo sapiens, UniProt P27487); experiment: DPP profiling service (BPS Bioscience), in vitro; type: biochemical; details: concentrations up to 10 μM
T2 construct: purchased BPS Bioscience, Inc. (San Diego, Calif.)
Experimental: The effect of DTBZ on DDP-IV was determined using the DPP profiling service from BPS Bioscience, Inc. (San Diego, Calif.).

VMAT2 [6] = molecular target: T3, VMAT2 (Rattus norvegicus, UniProt Q01827); experiment: PET displacement of [11C]DTBZ in pancreas; type: in vivo; details: cold compound 2 mg/kg, 30 minutes after radioligand
T3 construct: endogenous in cells; host or cells: rat INS 832/13 insulinoma cells
Experimental: PET scans were performed on 12-14-week-old Lewis male rats. Prior to imaging, the animals were anesthetized by isoflurane inhalation. After a transmission scan of the area of interest had been acquired (used to perform attenuation correction of the emission data), the radioligand [^11C]DTBZ was administered (0.5-1.0 μCi/gm) in saline as a bolus injection via the penile vein. PET scans of the animals were acquired dynamically to 90 minutes post-injection on a Concorde microPET-R4 (CTI Molecular Imaging (Knoxville, Tenn.)). The scanner provided a 100×80 mm field of view with a reconstructed resolution of 2.25 mm in the central 40 mm of the field of view.
At thirty minutes post injection of [^11C]DTBZ, animals received a second injection via the penile vein of cold analog. PET data were processed using an attenuation correction matrix obtained by transmission scans and images were reconstructed using Fourier rebinning, followed by two-dimensional, filtered back projection using microPET manager software (CTI Molecular Imaging (Knoxville, Tenn.)).
To test whether the strong hypoglycemic effect of compound 8 is conferred by binding to VMAT2 in beta cells, a PET study in rats was performed. The animals were treated with radiolabeled DTBZ, and the uptake of [^11C]DTBZ in pancreas was monitored by PET scan in the presence of an excess of compound 8.

VMAT2 [7] = molecular target: T3, VMAT2; experiment: Fake Fluorescent Neurotransmitter (FFN) uptake high throughput assay in INS 832/13 cells; type: cell-based
Excerpt: A high throughput (HTP) assay was developed to screen for compounds that interact with, e.g., bind to, VMAT2. The HTP exploits a class of compounds called Fake Fluorescent Neurotransmitters (FFN) that share the following characteristics a) low molecular weight and sufficiently hydrophilic to be water soluble; b) in aqueous buffer (pH 7), the excitation maxima is around 380-406 nm and the emission maxima is around 501 nm; and c) similar Kd for VMAT2 as dopamine. To validate the use of these compounds in beta cell lines (positive for VMAT2) the following set of experiments were performed.
The rat INS 832/13 cell line was selected because it secretes insulin in response to glucose concentrations in the physiological range and can be shown to contain VMAT2 by PCR. […] INS cells were grown on cover slips in normal media, then pretreated with and without DTBZ in low glucose media for one hour and then loaded with FFN (GH206). The distribution of fluorescent dye was then examined under a fluorescent microscope. The FFN distributes itself intracellularly in a punctate pattern similar, if not identical, to insulin containing granules of this cell line (data not shown). […] For better quantitation of the fluorescent signal, the cells were grown in […] and the same experiment substantially repeated. Briefly, cells were grown to confluence in complete high glucose media, then incubated for one hour in low glucose media. DTBZ was then added to the wells for one hour, followed with a second one hour incubation with FFN. Wells were then washed and the fluorescent signal (380 exc, 512 emm) measured in a multiwell fluorometer (Synergy HT Multi-Mode Microplate Reader).

T3 sequence (Q01827 whole entry): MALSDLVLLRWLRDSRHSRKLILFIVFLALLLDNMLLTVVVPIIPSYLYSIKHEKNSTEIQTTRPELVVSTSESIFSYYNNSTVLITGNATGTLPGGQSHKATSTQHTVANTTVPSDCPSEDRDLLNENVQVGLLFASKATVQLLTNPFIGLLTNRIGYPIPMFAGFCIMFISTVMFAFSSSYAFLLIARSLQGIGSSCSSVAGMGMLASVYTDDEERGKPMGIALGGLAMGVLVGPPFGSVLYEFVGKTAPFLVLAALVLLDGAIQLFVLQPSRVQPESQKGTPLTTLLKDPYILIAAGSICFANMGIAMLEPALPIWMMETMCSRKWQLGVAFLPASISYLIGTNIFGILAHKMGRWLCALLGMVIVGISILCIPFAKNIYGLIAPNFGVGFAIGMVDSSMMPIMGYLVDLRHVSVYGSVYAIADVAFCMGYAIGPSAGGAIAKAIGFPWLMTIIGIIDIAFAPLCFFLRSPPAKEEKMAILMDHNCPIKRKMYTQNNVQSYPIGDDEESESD
T2 sequence (P27487 whole entry, species assumed): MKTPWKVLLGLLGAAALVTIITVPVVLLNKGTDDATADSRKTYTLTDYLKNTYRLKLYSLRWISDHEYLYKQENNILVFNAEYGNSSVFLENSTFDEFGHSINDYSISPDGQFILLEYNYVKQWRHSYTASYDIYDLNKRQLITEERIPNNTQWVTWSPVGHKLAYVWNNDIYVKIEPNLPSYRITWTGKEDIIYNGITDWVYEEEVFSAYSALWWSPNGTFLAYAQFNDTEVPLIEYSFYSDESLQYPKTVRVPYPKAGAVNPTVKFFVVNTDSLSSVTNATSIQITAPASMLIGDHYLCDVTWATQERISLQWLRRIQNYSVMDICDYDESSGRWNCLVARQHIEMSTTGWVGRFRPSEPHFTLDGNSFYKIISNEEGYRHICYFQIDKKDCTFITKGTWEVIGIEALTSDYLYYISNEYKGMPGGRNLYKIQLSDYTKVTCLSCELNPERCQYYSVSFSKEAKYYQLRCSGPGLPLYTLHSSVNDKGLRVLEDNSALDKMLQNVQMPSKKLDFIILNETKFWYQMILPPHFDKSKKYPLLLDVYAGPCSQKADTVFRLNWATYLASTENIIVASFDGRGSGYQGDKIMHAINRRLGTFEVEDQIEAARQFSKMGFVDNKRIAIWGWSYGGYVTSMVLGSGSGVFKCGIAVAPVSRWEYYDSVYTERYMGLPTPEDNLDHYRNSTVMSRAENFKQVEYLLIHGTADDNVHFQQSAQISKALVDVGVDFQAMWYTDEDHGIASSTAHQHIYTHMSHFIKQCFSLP
VMAT2 (Homo sapiens, UniProt Q05940), sequence (Q05940 whole entry): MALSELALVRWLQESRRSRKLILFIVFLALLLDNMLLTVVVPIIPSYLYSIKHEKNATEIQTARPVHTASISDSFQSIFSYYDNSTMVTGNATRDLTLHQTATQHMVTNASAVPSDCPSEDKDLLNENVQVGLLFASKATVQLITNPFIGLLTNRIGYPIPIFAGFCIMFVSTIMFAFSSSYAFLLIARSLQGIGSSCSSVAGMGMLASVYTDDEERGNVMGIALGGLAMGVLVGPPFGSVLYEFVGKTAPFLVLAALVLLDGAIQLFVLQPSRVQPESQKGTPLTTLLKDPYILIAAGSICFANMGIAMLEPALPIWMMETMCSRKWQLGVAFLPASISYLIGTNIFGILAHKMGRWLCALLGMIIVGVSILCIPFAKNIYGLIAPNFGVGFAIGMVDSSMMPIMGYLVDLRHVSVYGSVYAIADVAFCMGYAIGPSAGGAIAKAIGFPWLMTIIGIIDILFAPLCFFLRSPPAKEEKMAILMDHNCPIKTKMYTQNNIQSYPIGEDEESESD

Structure (SMILES): COc1cc2c(cc1OC)C1CC(=O)C(CC(C)C)CN1CC2 (stereo not shown) [TBZ, tetrabenazine]
- reduction of glucose excursion (AUC IPGTT) (Lewis rats [1]; 2.25 μg/gm body weight i.v., older male Lewis rats >11 weeks): approximately 35%
- decrease of AUC IPGTT (Lewis rats [1]): 26%
- baseline fasting glucose concentration versus control animals (Lewis rats [1]; about 1 hour after TBZ, before glucose challenge): no reproducible differences
- AUC IPGTT (Lewis rats [1]; chronic administration, approximately 0.1 mg/Kg body weight for five days): suppressed the AUC IPGTT in a fashion similar to the single high dose
- AUC IPGTT (Lewis rats [1]; doses higher than 5.0 mg/Kg): increasingly variable, often surpassing that of control levels
- glucose tolerance enhancing effect (AUC IPGTT) (Lewis rats [1]; doses lower than 0.3 mg/Kg): undetectable
- dopamine content of brain (Lewis rats [2]): significantly reduced
- AUC plasma glucagon (Lewis rats [3]): lower relative to controls
- AUC IPGTT (STZ treated rats; STZ treated rats): decreased
- increase of AUC insulin (STZ treated rats; STZ treated rats which maintained glucose dependant insulin secretion): 50%-80%
- reduction of dopamine levels in the brain (rats): 40%
- reduction of norepinephrine levels in the brain (rats): 41%
- reduction of serotonin levels in the brain (rats): 44%
- plasma elimination half life, t1/2 [4]: 2 h
- reduced affinity towards VMAT1 versus VMAT2 (VMAT1): more than 10,000 fold
- dissociation constant (VMAT2 [5]): nanomolar range

Structure (SMILES): COc1ccc(C2CC(OCC(C)C)=CC(=O)N2)cc1OC (stereo not shown) [compound 8]
- decrease of AUC IPGTT (Lewis rats [1]): 45%
- hypoglycemic activity in IPGTT (improvement of glucose tolerance) (Lewis rats [1]; 2 mg/kg i.v., Lewis rats): potent hypoglycemic effect
- effect on DPP-IV (DPP-IV): negative
- binding to VMAT2, displacement of [11C]DTBZ in the endocrine pancreas, relative to DTBZ (VMAT2 [6]): at least a weak binding
- activity on a per mole basis in blocking FFN transport (VMAT2 [7]): less than that of DTBZ
- block of FFN uptake/transport (VMAT2 [7]; one hour preincubation): able to block FFN transport into INS vesicles
